Test results from patent US9371265B2, “Compositions and methods related to inhibitors of JAK kinase” (EP PHARMA, INC., priority 2012, dated 2016).

What was measured:
[1] = tested on: IL-3/JAK2-dependent BaF/3 cells; experiment: BaF/3 cell viability (MTS); type: cell-based, murine; conditions: identical concentrations of EP009 (up to 10 μM), 72 hours
Protocol: FIGS. 2A-2F. […] (B) Kit225 or (C) BaF/3 cells cultured in the presence of IL-2 or IL-3, respectively, were treated with vehicle (PBS; lane a) or increasing amounts of EP009 (0-50 μM; lanes b-h) for 12 hours. Cells were then lysed, clarified, and immunoprecipitated (IP) with anti-JAK3 (α-JAK3) or anti-JAK2 (α-JAK2), and subjected to Western blot (WB) analysis with anti-phosphotyrosine (α-pY). Blots were stripped and reprobed with corresponding antibody to verify equivalent protein loading. (D) Immunopurified JAK3 was subjected to in vitro autokinase analysis after treatment with vehicle (DMSO; lanes a and b) or ascending concentrations of EP009 (0-10 μM; lanes c-f) for 1 hour at room temperature. […] (E) Kit225 or BaF/3 cells were cultured with increasing amounts of EP009 (0-10 μM) for 72 hours and cell viability measured with the MTS tetrazolium salt assay. Values represent mean absorbance (OD490-OD650 nm) normalized to vehicle (PBS) treated control cells, while error bars represent the standard deviation (n=3). (F) HEK293, HEPG2, or naïve primary human PBMCs were cultured with increasing amounts of EP009 (0-10 μM) for 72 hours and cell viability measured with the MTS tetrazolium salt assay. Values represent mean absorbance (OD490-OD650 nm) normalized to vehicle (PBS) treated control cells, while error bars represent the standard deviation (n=3). […]

p70 S6 kinase = experiment: Phospho-p70 S6 kinase in SU-DHL-1 cells (Luminex multiplex); type: cell-based, human; conditions: 24 hours
Protocol: FIGS. 8A-8F. Effect of EP009 on ALCL cells is mediated through selective activation of ERK1/2 and JNK1/2 stress signaling pathways, and inhibition of p70 S6 kinase growth signaling pathways. SU-DHL-1 cells were treated with vehicle (PBS) or increasing amounts of EP009 (0-50 μM) for 24 hours. Cells were then lysed, clarified, and subjected to Luminex multiplex analysis to detect phosphorylated (A) ERK1/2, (B) JNK1/2, (C) p70 S6 kinase, (D) IκBα, (E) CREB, and (F) p38. Values represent mean fluorescence intensity (MFI) normalized to corresponding GAPDH MFI, while error bars represent the standard deviation (n=2). Representative data from two independent experiments are shown. Statistical significance was determined using Student's t-test. (*, p<0.05).
The MILLIPLEX MAP 8-plex Multi-Pathway Signaling Phosphoprotein kit (Millipore) was used to detect phosphorylated ERK1/2 (Thr185/Tyr187), STAT3 (Ser727), JNK1/2 (Thr183/Tyr185), p70 S6 kinase (Thr412), IκBα (Ser32), STAT5A/B (Tyr694/699), CREB (Ser133), and p38 (Thr180/Tyr182). The MILLIPLEX MAP 5-plex STAT Phosphoprotein kit (Millipore) was used to detect phosphorylated STAT1 (Tyr701), STAT2 (Tyr690), STAT3 (Tyr705), STAT5A/B (Tyr694/699), and STAT6 (Tyr641). The MILLIPLEX MAP Human Apoptosis 3-plex kit (Millipore) was used to detect cleaved PARP, cleaved Caspase 3, and total GAPDH for protein normalization.

ALK = ALK (Homo sapiens, UniProt Q9UM73); experiment: Kinase panel: ALK; type: biochemical; conditions: 10 μM EP009
ALK, sequence (Q9UM73 19-1620): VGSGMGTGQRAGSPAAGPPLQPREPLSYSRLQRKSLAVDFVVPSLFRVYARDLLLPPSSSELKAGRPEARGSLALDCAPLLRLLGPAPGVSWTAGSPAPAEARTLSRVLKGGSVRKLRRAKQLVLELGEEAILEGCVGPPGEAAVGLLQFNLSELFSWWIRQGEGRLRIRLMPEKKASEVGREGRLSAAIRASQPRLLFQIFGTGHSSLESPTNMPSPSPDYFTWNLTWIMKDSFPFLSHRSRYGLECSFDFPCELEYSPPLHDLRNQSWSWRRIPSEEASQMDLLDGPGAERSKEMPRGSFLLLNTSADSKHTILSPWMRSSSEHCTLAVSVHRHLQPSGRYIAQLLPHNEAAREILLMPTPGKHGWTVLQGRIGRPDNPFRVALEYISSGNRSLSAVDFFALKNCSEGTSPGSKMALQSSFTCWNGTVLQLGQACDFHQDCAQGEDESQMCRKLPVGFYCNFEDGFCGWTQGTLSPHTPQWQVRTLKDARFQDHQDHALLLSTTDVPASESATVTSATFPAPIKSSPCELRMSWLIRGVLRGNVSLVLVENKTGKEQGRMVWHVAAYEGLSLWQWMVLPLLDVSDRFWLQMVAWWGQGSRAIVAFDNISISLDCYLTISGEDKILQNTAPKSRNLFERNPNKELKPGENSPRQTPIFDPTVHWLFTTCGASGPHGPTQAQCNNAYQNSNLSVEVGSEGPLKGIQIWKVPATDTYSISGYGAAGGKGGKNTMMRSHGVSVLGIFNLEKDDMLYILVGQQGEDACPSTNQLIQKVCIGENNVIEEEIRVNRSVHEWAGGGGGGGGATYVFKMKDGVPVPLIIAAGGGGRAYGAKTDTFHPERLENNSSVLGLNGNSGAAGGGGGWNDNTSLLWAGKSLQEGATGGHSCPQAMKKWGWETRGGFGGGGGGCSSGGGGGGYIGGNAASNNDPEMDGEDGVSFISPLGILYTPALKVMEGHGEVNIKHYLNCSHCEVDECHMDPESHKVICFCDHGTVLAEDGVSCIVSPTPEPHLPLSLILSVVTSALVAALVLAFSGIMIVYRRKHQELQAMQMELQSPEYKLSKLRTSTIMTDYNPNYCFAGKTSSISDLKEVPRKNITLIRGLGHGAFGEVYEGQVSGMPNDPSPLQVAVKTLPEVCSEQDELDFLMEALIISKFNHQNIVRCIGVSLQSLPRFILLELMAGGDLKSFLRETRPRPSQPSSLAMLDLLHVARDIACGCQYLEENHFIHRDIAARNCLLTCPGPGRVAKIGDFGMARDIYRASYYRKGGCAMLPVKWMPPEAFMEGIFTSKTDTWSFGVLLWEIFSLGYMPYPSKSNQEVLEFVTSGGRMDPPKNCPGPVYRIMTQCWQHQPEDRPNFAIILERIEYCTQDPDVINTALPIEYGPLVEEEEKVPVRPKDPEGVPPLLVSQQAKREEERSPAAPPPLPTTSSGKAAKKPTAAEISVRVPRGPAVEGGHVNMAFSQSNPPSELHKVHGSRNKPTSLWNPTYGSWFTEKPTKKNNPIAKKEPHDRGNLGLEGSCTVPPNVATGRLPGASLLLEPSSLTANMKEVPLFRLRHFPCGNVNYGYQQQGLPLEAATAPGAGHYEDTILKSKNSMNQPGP
Protocol: (§1) Achieving JAK3 selectivity remains a significant challenge in the development of new small molecules for the treatment of cancer and immune-derived diseases. As such, the inventors employed cell-based screening assays of small-molecule libraries based upon the chemical scaffold of the established JAK3 inhibitor NC1153 (Stepkowski et al., J Immunol. (2005), 175(7):4236-4246) EP009 (FIG. 2A) was selected as a lead compound due to improved intrinsic stability (>95% purity in various solvents at 37° C. for 24 hours; FIG. 3) and high-degree of JAK3 selectivity. To test JAK3 versus JAK2 specificity of EP009, the IL-2/JAK3-dependent Kit225, and IL-3/JAK2-dependent BaF/3 cell lines were used. Kit225 and BaF/3 cells growing in the presence of IL-2 or IL-3, respectively, were treated with ascending concentrations of EP009 for 12 hours and cellular JAK3 and JAK2 tyrosine phosphorylation levels detected by Western blot analysis (FIGS. 2B and 2C). Following densitometric analysis, EP009 was determined to dose-dependently reduce IL-2-mediated JAK3 tyrosine phosphorylation with a cellular 50% inhibitory concentration (IC50) between 10 and 20 μM (FIG. 2B). […] To globally evaluate specificity, the inhibitory activity of EP009 was measured against a panel of protein kinases distributed throughout the kinome using the scanEDGE profiling service (KINOMEscan). […]

EGFR(L858R) = EGFR(L858R) (Homo sapiens, UniProt P00533, L858R); experiment: Kinase panel: EGFR(L858R); type: biochemical; conditions: 10 μM EP009
Protocol: as §1

PLK4 = PLK4 (Homo sapiens, UniProt O00444); experiment: Kinase panel: PLK4; type: biochemical; conditions: 10 μM EP009
PLK4, sequence (O00444 whole entry): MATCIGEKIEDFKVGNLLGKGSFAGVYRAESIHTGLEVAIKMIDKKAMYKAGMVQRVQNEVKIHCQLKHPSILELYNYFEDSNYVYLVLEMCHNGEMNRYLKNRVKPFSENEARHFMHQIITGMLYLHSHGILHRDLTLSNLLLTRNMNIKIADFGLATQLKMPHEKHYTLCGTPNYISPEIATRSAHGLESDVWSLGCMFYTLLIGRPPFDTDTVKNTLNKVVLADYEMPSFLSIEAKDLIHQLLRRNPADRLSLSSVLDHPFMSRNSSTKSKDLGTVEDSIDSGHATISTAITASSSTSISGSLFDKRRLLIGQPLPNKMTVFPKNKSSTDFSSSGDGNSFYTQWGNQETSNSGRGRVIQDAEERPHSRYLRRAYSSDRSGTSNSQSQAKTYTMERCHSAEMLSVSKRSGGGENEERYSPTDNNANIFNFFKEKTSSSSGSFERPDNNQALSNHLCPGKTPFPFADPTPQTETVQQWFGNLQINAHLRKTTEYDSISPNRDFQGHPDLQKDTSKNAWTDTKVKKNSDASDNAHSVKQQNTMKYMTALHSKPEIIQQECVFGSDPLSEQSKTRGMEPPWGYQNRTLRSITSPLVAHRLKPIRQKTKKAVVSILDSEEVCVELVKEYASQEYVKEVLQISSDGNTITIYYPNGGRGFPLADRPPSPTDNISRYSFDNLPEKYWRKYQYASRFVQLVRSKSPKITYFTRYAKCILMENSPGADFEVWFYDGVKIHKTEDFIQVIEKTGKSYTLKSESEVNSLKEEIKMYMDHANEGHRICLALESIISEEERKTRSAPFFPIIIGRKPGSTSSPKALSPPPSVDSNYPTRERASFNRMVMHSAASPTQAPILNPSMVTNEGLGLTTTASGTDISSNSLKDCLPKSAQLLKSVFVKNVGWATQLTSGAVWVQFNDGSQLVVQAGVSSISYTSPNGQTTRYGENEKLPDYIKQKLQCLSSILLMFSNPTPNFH
Protocol: as §1

C=C1CCCCCCCCCC(CO)C1=O (stereo not drawn) [EP009, 2-(Hydroxymethyl)-12-methylenecyclododecanone] was tested, and the “effect on BaF/3 cell viability” value [1] was “no effect”, the “constitutive phosphorylation of p70 S6 kinase” value (p70 S6 kinase) was “decreased in a dose-dependent manner” and the “Kinase Activity (% of Control)” value (ALK) was 100 % of Control. The “Kinase Activity (% of Control)” value (EGFR(L858R)) was 100 % of Control, the “inhibition of Polo-like kinase 4 (PLK4)” value (PLK4) was 47 % inhibition and the “Kinase Activity (% of Control)” value (PLK4; PLK4) was 53 % of Control.
